From patent publication US20100190747A1, “Fused ring compound and use thereof” (priority 2009, published 2010)

The compounds below were run against T1, delta-5-desaturase (Rattus norvegicus, UniProt Q920R3) (assay: Inhibitory activity on delta-5-desaturase (rat liver microsomal fraction, 14C-eicosatrienoic acid, TLC)). Conditions: test compound at 10 μM, room temperature, 120 minutes.
T1 construct: the microsomal fraction of a rat river (10 μl), which had been diluted to 3 mg/ml; from tissue; host or cells: rat liver microsomal fraction
T1 sequence (Q920R3 whole entry): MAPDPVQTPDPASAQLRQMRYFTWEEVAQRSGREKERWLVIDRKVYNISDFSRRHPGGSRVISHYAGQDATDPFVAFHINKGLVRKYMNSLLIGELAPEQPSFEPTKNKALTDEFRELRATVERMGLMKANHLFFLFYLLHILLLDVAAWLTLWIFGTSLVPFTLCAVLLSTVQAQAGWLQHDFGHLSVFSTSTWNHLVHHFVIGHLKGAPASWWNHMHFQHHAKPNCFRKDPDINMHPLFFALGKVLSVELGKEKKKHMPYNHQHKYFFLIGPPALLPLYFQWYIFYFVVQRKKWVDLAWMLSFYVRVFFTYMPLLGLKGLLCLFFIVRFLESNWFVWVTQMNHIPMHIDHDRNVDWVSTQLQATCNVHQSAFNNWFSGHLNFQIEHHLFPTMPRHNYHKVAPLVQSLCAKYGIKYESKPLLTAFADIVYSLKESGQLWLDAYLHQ
Format: biochemical
Description: An inhibitory activity of a test compound on delta-5-desaturase was measured according to the method described herein below. To a DMSO solution of the test compound which had been previously prepared, secondary dilution was carried out by using a buffer (300 mM NaH2PO4 [pH 7.4], 450 mM KCl, 30 mM NaF, 9 mM MgCl2, 4.5 mM glutathione [reduced form], 0.3% BSA [fatty acid free, SIGMA]). This diluent compound (10 μl) was added in a 96-well deep well block made of polypropylene, and then the microsomal fraction of a rat river (10 μl), which had been diluted to 3 mg/ml by using a microsome buffer (10 mM Tris-HCl [pH 7.4], 1 mM EDTA, and 250 mM sucrose), was added thereto. The enzyme reaction was initiated by adding 10 μl of 9 mM NADH, 9 mM ATP, 0.9 mM CoA and 10 μCi/ml (8E,11E,14E)-(1-^14C)eicosa-8,11,14-trienoic acid (PerkinElmer Inc.). The enzyme reaction was carried out at room temperature for 120 minutes, and then terminated by addition of 2.5 M NaOH (10 μl). Upon the completion of the reaction, the plate was covered with plate seal and incubated overnight in a dry heater of which temperature was set at 55° C. for saponification. Based on Bligh & Dyer method which had been described in a known document, Canadian Journal of Biochemistry and Physiology (Can. J. Biochem. Physiol.), Vol. 37, page 911, 1959), the solvent extraction of fatty acid was carried out by adding 200 μl of formic acid:methanol:chloroform (1:6:3), keeping the mixture as a single layer for a while, stirring the mixture to a sufficient level, and adding 120 μl of pure water to separate the mixture into two layers. 10 μl of the bottom chloroform layer was spotted on a reverse phase TLC plate (RP-18, 1154230001, Merck Japan, Ltd.) and then developed with acetonitrile:pure water:acetic acid (95:4.5:0.5). The TLC plate obtained after drying was transferred to an Imaging Plate (Fuji Photo Film Co., Ltd.) for more than 5 hours. Detection was carried out by using BAS-5000 (Fuji Photo Film Co., Ltd.). Numerization of thus-obtained image was carried out by using Multi Gauge Ver 2.3 (Fuji Photo Film Co., Ltd.) and an inhibitory ratio (%) of the test compound at 10 μM on delta-5-desaturase was obtained.

Structure (SMILES) | inhibition at 10 µM
N#CCCNC(=O)CCCSc1nc2[nH]ccc2c(=O)n1-c1ccc(OCCC(F)(F)F)cc1 [Example 189, N-(2-cyanoethyl)-4-({4-oxo-3-[4-(3,3,3-trifluoropropoxy)phenyl]-4,7-dihydro-3H-pyrrolo[2,3-d]pyrimidin-2-yl}sulfanyl)butanamide] | 105%
O=c1c2[nH]ccc2nc(SCCCS(=O)(=O)N2CCOCC2)n1-c1ccc(OCC(F)(F)F)cc1 [Example 106, 2-{[3-(Morpholin-4-ylsulfonyl)propyl]sulfanyl}-3-[4-(2,2,2-trifluoroethoxy)phenyl]-3,5-dihydro-4H-pyrrolo[3,2-d]pyrimidin-4-one] | 102%
N#CCCNC(=O)CCCSc1nc2cc[nH]c2c(=O)n1-c1ccc(OCC2CC2(F)F)cc1 (stereo not shown) [Example 95, N-(2-cyanoethyl)-4-[(3-{4-[(2,2-difluorocyclopropyl)methoxy]phenyl}-4-oxo-4,5-dihydro-3H-pyrrolo[3,2-d]pyrimidin-2-yl)sulfanyl]butanamide] | 100%
O=c1c2[nH]ccc2nc(SCCOC2CCOCC2)n1-c1ccc(OCC(F)(F)F)cc1 [Example 159, 2-{[2-(Tetrahydro-2H-pyran-4-yloxy)ethyl]sulfanyl}-3-[4-(2,2,2-trifluoroethoxy)phenyl]-3,5-dihydro-4H-pyrrolo[3,2-d]pyrimidin-4-one] | 99%
N#CCSc1nc2c(c(=O)n1-c1ccc(OCC(F)(F)F)cc1)CC(=O)N2 [Example 312, ({4,6-Dioxo-3-[4-(2,2,2-trifluoroethoxy)phenyl]-4,5,6,7-tetrahydro-3H-pyrrolo[2,3-d]pyrimidin-2-yl}sulfanyl)acetonitrile] | 97%
N#CCCNC(=O)CCCSc1nc2[nH]ccc2c(=O)n1-c1ccc(OCCCC(F)(F)F)cc1 [Example 186, N-(2-cyanoethyl)-4-({4-oxo-3-[4-(4,4,4-trifluorobutoxy)phenyl]-4,7-dihydro-3H-pyrrolo[2,3-d]pyrimidin-2-yl}sulfanyl)butanamide] | 100%
COCCCSc1nc2cc[nH]c2c(=O)n1-c1ccc(OCC(F)(F)F)cc1 [Example 132, 2-[(3-Methoxypropyl)sulfanyl]-3-[4-(2,2,2-trifluoroethoxy)phenyl]-3,5-dihydro-4H-pyrrolo[3,2-d]pyrimidin-4-one] | 107%
N#CCCNC(=O)CCCSc1nc2c(C3CC3)c[nH]c2c(=O)n1-c1ccc(OCC(F)(F)F)cc1 [Example 170, N-(2-cyanoethyl)-4-({7-cyclopropyl-4-oxo-3-[4-(2,2,2-trifluoroethoxy)phenyl]-4,5-dihydro-3H-pyrrolo[3,2-d]pyrimidin-2-yl}sulfanyl)butanamide] | 101%
CCOCCCSc1nc2[nH]ccc2c(=O)n1-c1ccc(OCC(F)(F)F)cc1 [Example 213, 2-[(3-Ethoxypropyl)sulfanyl]-3-[4-(2,2,2-trifluoroethoxy)phenyl]-3,7-dihydro-4H-pyrrolo[2,3-d]pyrimidin-4-one] | 100%
Cn1ccc2c(=O)n(-c3ccc(OCC(F)(F)F)cc3)c(SCCCC(=O)NCCC#N)nc21 [Example 195] | 101%
CC1(O)CCN(C(=O)CCCSc2nc3cc[nH]c3c(=O)n2-c2ccc(OCC(F)(F)F)cc2)CC1 [Example 134, 2-{[4-(4-Hydroxy-4-methylpiperidin-1-yl)-4-oxobutyl]sulfanyl}-3-[4-(2,2,2-trifluoroethoxy)phenyl]-3,5-dihydro-4H-pyrrolo[3,2-d]pyrimidin-4-one] | 100%
CCCCSc1nc2[nH]ccc2c(=O)n1-c1ccc(OCC(F)(F)F)cc1 [Example 252, 2-(Butylsulfanyl)-3-[4-(2,2,2-trifluoroethoxy)phenyl]-3,7-dihydro-4H-pyrrolo[2,3-d]pyrimidin-4-one] | 96%
N#CCCNC(=O)CCCSc1nc2cc[nH]c2c(=O)n1-c1ccc(OCC(F)(F)F)cc1 [Example 67] | 96%
O=C1Cc2c(nc(SC3CC3)n(-c3ccc(OCC(F)(F)F)cc3)c2=O)N1 [Example 291, 2-(Cyclopropylsulfanyl)-3-[4-(2,2,2-trifluoroethoxy)phenyl]-5,7-dihydro-3H-pyrrolo[2,3-d]pyrimidine-4,6-dione] | 99%
CC1(COc2ccc(-n3c(SCCCC(=O)NCCC#N)nc4[nH]ccc4c3=O)cc2)CC1 [Example 188, N-(2-cyanoethyl)-4-[(3-{4-[(1-methylcyclopropyl)methoxy]phenyl}-4-oxo-4,7-dihydro-3H-pyrrolo[2,3-d]pyrimidin-2-yl)sulfanyl]butanamide] | 98%
CSc1nc2c(c(=O)n1-c1ccc(OCC(F)(F)C(F)(F)F)cc1)CC(=O)N2 [Example 303, 2-(Methylsulfanyl)-3-[4-(2,2,3,3,3-pentafluoropropoxy)phenyl]-5,7-dihydro-3H-pyrrolo[2,3-d]pyrimidine-4,6-dione] | 98%
CCOCCSc1nc2cc[nH]c2c(=O)n1-c1ccc(OCC2CC2)cc1 [Example 143, 3-[4-(Cyclopropylmethoxy)phenyl]-2-[(2-ethoxyethyl)sulfanyl]-3,5-dihydro-4H-pyrrolo[3,2-d]pyrimidin-4-one] | 101%
CS(=O)(=O)CCCSc1nc2[nH]ccc2c(=O)n1-c1ccc(OCC2CC2)cc1 [Example 215, 3-[4-(Cyclopropylmethoxy)phenyl]-2-{[3-(methylsulfonyl)propyl]sulfanyl}-3,7-dihydro-4H-pyrrolo[2,3-d]pyrimidin-4-one] | 102%
O=C1Cc2c(nc(SCC(F)(F)F)n(-c3ccc(OCC(F)(F)C(F)(F)F)cc3)c2=O)N1 [Example 347, 3-[4-(2,2,3,3,3-Pentafluoropropoxy)phenyl]-2-[(2,2,2-trifluoroethyl)sulfanyl]-5,7-dihydro-3H-pyrrolo[2,3-d]pyrimidine-4,6-dione] | 100%
CCSc1nc2cc[nH]c2c(=O)n1-c1ccc(OCC(F)(F)F)cc1 [Example 104, 2-(Ethylsulfanyl)-3-[4-(2,2,2-trifluoroethoxy)phenyl]-3,5-dihydro-4H-pyrrolo[3,2-d]pyrimidin-4-one] | 100%
CCSc1nc2[nH]c(Cl)cc2c(=O)n1-c1ccc(OCC(F)(F)F)cc1 [Example 231, 6-Chloro-2-(ethylsulfanyl)-3-[4-(2,2,2-trifluoroethoxy)phenyl]-3,7-dihydro-4H-pyrrolo[2,3-d]pyrimidin-4-one] | 101%
O=c1c2cc[nH]c2nc(OCC(F)(F)C(F)(F)F)n1-c1ccc(OCC(F)(F)F)cc1 [Example 239, 2-(2,2,3,3,3-Pentafluoropropoxy)-3-[4-(2,2,2-trifluoroethoxy)phenyl]-3,7-dihydro-4H-pyrrolo[2,3-d]pyrimidin-4-one] | 101%
CCOCCOCCSc1nc2cc[nH]c2c(=O)n1-c1ccc(OCC(F)(F)F)cc1 [Example 79, 2-{[2-(2-Ethoxyethoxy)ethyl]sulfanyl}-3-[4-(2,2,2-trifluoroethoxy)phenyl]-3,5-dihydro-4H-pyrrolo[3,2-d]pyrimidin-4-one] | 99%
O=c1c2cc[nH]c2nc(SC2CC2)n1-c1ccc(OCC(F)(F)F)cc1 [Example 256, 2-(Cyclopropylsulfanyl)-3-[4-(2,2,2-trifluoroethoxy)phenyl]-3,7-dihydro-4H-pyrrolo[2,3-d]pyrimidin-4-one] | 104%
CC(C)Sc1nc2c(c(=O)n1-c1ccc(OCC(F)(F)F)cc1)CC(=O)N2 [Example 285, 2-[(1-Methylethyl)sulfanyl]-3-[4-(2,2,2-trifluoroethoxy)phenyl]-5,7-dihydro-3H-pyrrolo[2,3-d]pyrimidine-4,6-dione] | 96%
O=C1Cc2c(nc(OC(CF)CF)n(-c3ccc(OCC(F)(F)F)cc3)c2=O)N1 [Example 338, 2-[2-Fluoro-1-(fluoromethyl)ethoxy]-3-[4-(2,2,2-trifluoroethoxy)phenyl]-5,7-dihydro-3H-pyrrolo[2,3-d]pyrimidine-4,6-dione] | 100%
O=C(CCCSc1nc2cc[nH]c2c(=O)n1-c1ccc(OCC(F)(F)F)cc1)N1CCCC1 [Example 110, 2-[(4-Oxo-4-pyrrolidin-1-ylbutyl)sulfanyl]-3-[4-(2,2,2-trifluoroethoxy)phenyl]-3,5-dihydro-4H-pyrrolo[3,2-d]pyrimidin-4-one] | 102%

Same assay, conditions: test compound at 10 μM, room temperature, 120 minutes, 10 µM

Structure (SMILES) | Inhibitory activity at 10 μM (%)
O=c1c2cc[nH]c2nc(OCC2CC2)n1-c1ccc(OCC(F)(F)F)cc1 [Example 289, 2-(Cyclopropylmethoxy)-3-[4-(2,2,2-trifluoroethoxy)phenyl]-3,7-dihydro-4H-pyrrolo[2,3-d]pyrimidin-4-one] | 101%
